Results published in patent US10100010B1, “4-methoxy pyrrole derivatives or salts thereof and pharmaceutical composition comprising the same” (Daewoong Pharmaceutical Co., Ltd., priority 2015, dated 2018).

System: 100% ethanol (EtOH)-induced gastric damage in rats
Test: 100% ethanol (EtOH)-induced gastric damage in rats, gastric damage inhibition and mucus enhancement
Type: in vivo, Sprague Dawley (SD) rats
Settings: oral 3.0, 10.0 and 30.0 mg/kg, 1 hour before 100% EtOH
Protocol: The inhibitory activity and defensive factor-enhancing effects of the compound prepared in Example 8 were measured using 100% ethanol (EtOH)-induced gastric damage model (Paul V. Tan et al., 2002, Journal of Ethnopharmacology, 82, p 69-74). Male Sprague Dawley (SD) rats (body weight 180-200 g) was fasted for 24 hours with free access to water. Control group was orally administered with 5 mL/kg of 0.5% methyl cellulose (MC) aqueous solution, and the other groups were orally administered with test compounds suspended in 0.5% MC aqueous solution at a dose of 3.0, 10.0 and 30.0 mg/kg/5 mL. For comparison, the compound of Example 134 (Comparative Example 1), the compound of Example 165 (Comparative Example 2) and the compound of Example 166 (Comparative Example 3) in International Patent Publication No. WO2006/036024 were orally administered at the same dose by suspending 0.5% MC aqueous solution, respectively. 1 hour after oral administration, 1 mL of 100% EtOH was orally administered. 1 hour after EtOH administration, the test animals were sacrificed to remove the stomach. Ten in the total 20 animals scraped the mucus of stomach with a slide glass and the mucus contents were analyzed to calculate ED50. […] The incised stomach was placed on a fixture, fixed by a fixing pin while spreading out using a forcep and then the gastric damage area was measured to calculate ED50.

CNCc1cn(S(=O)(=O)c2cccc(F)c2)c(-c2ccc(F)cc2F)c1OC.Cl [Example 8, 1-(5-(2,4-difluorophenyl)-1-((3-fluorophenyl)sulfonyl)-4-methoxy-1H-pyrrol-3-yl)-N-methylmethanamine hydrochloride]
ED50 (Rattus norvegicus, read-out: Mucus secretion ED50): 12.2 mg/kg
Gastric index ED50 (gastric damage area): 13.4 mg/kg
